Our source for the Kd and EC50 values is US10947252B2, “Inhibitors of KEAP1-Nrf2 protein-protein interaction” (Janssen Pharmaceutica NV, priority 2018, dated 2021).

Usually pKd stands for the Kd on a negative log10 scale, so that one unit is a factor of ten. What is called pEC50 is the negative decadic logarithm of the EC50, by convention in mol/L. A low value points to a high EC50.

Assay [1] has as its target Kelch domain of human KEAP1 (321-624 aa) (Homo sapiens (Human), UniProt Q14145). Nature of the assay: KEAP1 KELCH ThermoFluor binding assay.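 Also: Ligand-induced melting temperature shift of E. coli-expressed KEAP1 Kelch protein, Kd estimated from concentration-response curves of ΔTm.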 To be noted: KEAP Kelch […], 1,8-ANS, pH 7.0, average of results obtained, read-out: Tf Kd. A general note: DSF heats the sample and reads unfolding from a dye or from intrinsic fluorescence.
Assay [2] concerns Glo-Response ARE-luc2P HEK293 cell line. Briefly: ARE luciferase reporter cell-based assay.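 Also: luciferase signal tracks Nrf2 activation of the ARE once compounds disrupt KEAP1-Nrf2 binding, read with One-Glo reagent, DMSO serving as low control.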 To be noted: Homo sapiens, HEK293, 24 h, average of results obtained. For orientation: In a reporter assay the amount or activity of a reporter protein is the signal.

pEC50, pKd: −log10 of the molar value.

Chain of Kelch domain of human KEAP1 (321-624 aa) (Q14145 321-624): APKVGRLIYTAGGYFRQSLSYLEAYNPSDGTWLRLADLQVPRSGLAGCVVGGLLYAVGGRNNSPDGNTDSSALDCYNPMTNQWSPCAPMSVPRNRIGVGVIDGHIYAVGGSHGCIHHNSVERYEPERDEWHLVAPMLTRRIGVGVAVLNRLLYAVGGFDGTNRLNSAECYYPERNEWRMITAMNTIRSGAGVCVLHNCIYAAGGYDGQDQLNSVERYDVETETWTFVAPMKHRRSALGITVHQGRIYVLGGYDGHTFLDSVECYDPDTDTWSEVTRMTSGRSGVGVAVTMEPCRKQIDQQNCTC

Take `Cc1cnc2c(c1)S(=O)(=O)N(Cc1cc([C@H](CC(=O)O)c3ccn4c(C(F)(F)F)nnc4c3C)ccc1Cl)CC1CCCCN21` (single isomer, unassigned) [Example 91, (*S)-3-(4-Chloro-3-(((*S)-3-methyl-5,5-dioxido-7,7a,8,9,10,11-hexahydro-6H-dipyrido[2,1-d:2′,3′-f][1,2,5]thiadiazepin-6-yl)methyl)phenyl)-3-(8-methyl-3-(trifluoromethyl)-[1,2,4]triazolo[4,3-a]pyridine-7-yl)propanoic Acid]: the pKd in assay [1] is greater than 9.00. Moreover, in assay [2], the pEC50 is 7.84.
On to `CCc1nnc2c(C)c(C(CC(=O)O)c3ccc(C)c(CN4C[C@H]5CCCN5c5ccccc5S4(=O)=O)c3)ccn12` (stereo partly drawn) [Example 278, 3-(3-(((R)-5,5-Dioxido-7a,8,9,10-tetrahydrobenzo[f]pyrrolo[2,1-d][1,2,5]thiadiazepin-6(7H)-yl)methyl)-4-methylphenyl)-3-(3-ethyl-8-methyl-[1,2,4]triazolo[4,3-a]pyridin-7-yl)propanoic Acid], for which, in assay [1], the pKd is greater than 9.00. The compound also had a pEC50 in assay [2] of 6.33.
The corresponding values for `CCn1nnc2c(C)c(C(CC(=O)O)c3ccc(C)c(CN4C[C@H]5CCCCN5c5ncccc5S4(=O)=O)n3)ccc21` (stereo in doubt) [Example 304, 3-(6-(((*R)-5,5-Dioxido-7,7a,8,9,10,11-hexahydro-6H-dipyrido[2,1-d:2′,3′-][1,2,5]thiadiazepin-6-yl)methyl)-5-methylpyridin-2-yl)-3-(1-ethyl-4-methyl-1H-benzo[d][1,2,3]triazol-5-yl)propanoic Acid] are greater than 9.00 and 8.54.
As to `Cc1ccc([C@H](c2cc(C)n3c(C(F)(F)F)nnc3c2C)C(C)C(=O)O)cc1CN1C[C@@H]2CCCCN2c2ncccc2S1(=O)=O` (relative stereo) [Example 133, (3*R)-3-(5,8-Dimethyl-3)-(trifluoromethyl)-[1,2,4-triazolo[4,3-a]pyridine-7-yl)-3-(3-(((*S)-5,5-dioxido-7,7a,8,9,10,11-hexahydro-6H-dipyrido[2,1-d:2′,3′-f][1,2,5]thiadiazepin-6-yl)methyl)-4-methylphenyl)-2-methylpropanoic Acid], the pKd in assay [1] was greater than 9.00. Also, the pEC50 in assay [2] was 8.70.
The corresponding values for `Cc1cnc2c(c1)S(=O)(=O)N(Cc1nc([C@H](CC(=O)O)c3ccn4c(C(F)(F)F)nnc4c3C)ccc1C)C[C@H]1CCCCN21` (single isomer, unassigned) [Example 492, (*R)-3-(8-Methyl-3-(trifluoromethyl)-[1,2,4]triazolo[4,3-a]pyridin-7-yl)-3-(5-methyl-6-(((*R)-3-methyl-5,5-dioxido-7,7a,8,9,10,11-hexahydro-6H-dipyrido[2,1-d:2′,3′-f][1,2,5]thiadiazepin-6-yl)methyl)pyridin-2-yl)propanoic Acid] are greater than 9.00 and 7.89.
On the same counts, the results for `Cc1ccc([C@H](CC(=O)O)c2ccn3c(C(F)(F)F)nnc3c2C)cc1CN1C[C@H]2CCCCN2c2ccccc2S1(=O)=O` (single isomer, unassigned) [Example 300, (*S)-3-(3-(((*R)-5,5-Dioxido-7,7a,8,9,10,11-hexahydro-6H-benzo[f]pyrido[2,1-d][1,2,5]thiadiazepin-6-yl)methyl)-4-methylphenyl)-3-(8-methyl-3-(trifluoromethyl)-[1,2,4]triazolo[4,3-a]pyridin-7-yl)propanoic Acid] are greater than 9.00 and 8.30.
The corresponding values for `Cc1ccc([C@H](CC(=O)O)c2ccn3c(C(F)(F)F)nnc3c2C)cc1CN1C[C@H]2CCCCN2c2ncccc2S1(=O)=O` (single isomer, unassigned) [Example 272, (*S)-3-(3-(((*R)-5,5-Dioxido-7,7a,8,9,10,11-hexahydro-6H-dipyrido[2,1-d:2′,3′-f][1,2,5]thiadiazepin-6-yl)methyl)-4-methylphenyl)-3-(8-methyl-3-(trifluoromethyl)-[1,2,4]triazolo[4,3-a]pyridin-7-yl)propanoic Acid] are greater than 9.00 and 7.96.
For `Cc1ccc([C@@H](CC(=O)O)c2ccc3c(nnn3CC3CC3)c2C)cc1CN1CC2(COC2)Oc2ncccc2S1(=O)=O` (single isomer, unassigned) [Example 70, (*R)-3-(1-(Cyclopropylmethyl)-4-methyl-1H-benzo[d][1,2,3]triazol-5-yl)-3-(3-((1′,1′-dioxidospiro[oxetane-3,4′-pyrido[2,3-b][1,4,5]oxathiazepin-2′(3′H)-yl)methyl)-4-methylphenyl)propanoic Acid], in assay [1], the pKd was 8.72. Also, in assay [2], the pEC50 was 6.74.
On the same counts, the results for `CCc1nnc2c(C)c([C@H](CC(=O)O)c3ccc(C)c(CN4C[C@H]5CCCN5c5ccccc5S4(=O)=O)c3)ccn12` (single isomer, unassigned) [Example 280, (*R)-3-(3-(((R)-5,5-Dioxido-7a,8,9,10-tetrahydrobenzo[f]pyrrolo[2,1-d][1,2,5]thiadiazepin-6(7H)-yl)methyl)-4-methylphenyl)-3-(3-ethyl-8-methyl-[1,2,4]triazolo[4,3-a]pyridin-7-yl)propanoic Acid] are greater than 9.00 and 5.40.
The corresponding values for `CCn1nnc2c(C)c(C(CC(=O)O)c3ccc(C)c(CN4C[C@@H]5CCCCN5c5ncccc5S4(=O)=O)n3)ccc21` (stereo in doubt) [Example 301, 3-(6-(((*S)-5,5-Dioxido-7,7a,8,9,10,11-hexahydro-6H-dipyrido[2,1-d:2′,3′-][1,2,5]thiadiazepin-6-yl)methyl)-5-methylpyridin-2-yl)-3-(1-ethyl-4-methyl-1H-benzo[d][1,2,3]triazol-5-yl)propanoic Acid] are greater than 9.00 and 8.33.
With `Cc1ccc([C@H](CC(=O)O)c2ccn3c(C(F)(F)F)nnc3c2C)cc1CN1C[C@@H]2CCCCN2c2ncc(Cl)cc2S1(=O)=O` (single isomer, unassigned) [Example 192, (*S)-3-(3-(((*S)-3-Chloro-5,5-dioxido-7,7a,8,9,10,11-hexahydro-6H-dipyrido[2,1-d:2′,3′-f][1,2,5]thiadiazepin-6-yl)methyl)-4-methylphenyl)-3-(8-methyl-3-(trifluoromethyl)-[1,2,4]triazolo[4,3-a]pyridin-7-yl)propanoic Acid], in assay [1], the pKd was greater than 9.00. Further, the pEC50 in assay [2] was 8.85.
The corresponding values for `Cc1ccc([C@H](CC(=O)O)c2ccc3c(nnn3CC3CC3)c2C)cc1CN1C[C@H]2CCCN2c2ncccc2S1(=O)=O` (single isomer, unassigned) [Example 402, (*S)-3-(1-(Cyclopropylmethyl)-4-methyl-1H-benzo[d][1,2,3]triazol-5-yl)-3-(3-(((R)-5,5-dioxido-7a,8,9,10-tetrahydropyrido[2,3-f]pyrrolo[2,1-d][1,2,5]thiadiazepin-6(7H)-yl)methyl)-4-methylphenyl)propanoic Acid] are greater than 9.00 and 7.55.
On the same counts, the results for `Cc1cnc2c(c1)S(=O)(=O)N(Cc1cc([C@@H](c3ccn4c(C(F)(F)F)nnc4c3C)C(C)(C)C(=O)O)ncc1C)CC1(CC1)O2` (single isomer, unassigned) [Example 588, (*S)-2,2-Dimethyl-3-(8-methyl-3-(trifluoromethyl)-[1,2,4]triazolo[4,3-a]pyridin-7-yl)-3-(5-methyl-4-((8′-methyl-1′,1′-dioxidospiro[cyclopropane-1,4′-pyrido[2,3-b][1,4,5]oxathiazepin]-2′(3′H)-yl)methyl)pyridin-2-yl)propanoic Acid] are greater than 9.00 and 8.12.
As for `Cc1cnc2c(c1)S(=O)(=O)N(Cc1cc([C@H](c3ccn4c(C(F)(F)F)nnc4c3C)C(C)(C)C(=O)O)ccc1C)C[C@]1(CCOC1)O2` (single isomer, unassigned) [Example 387, (*R)-2,2-Dimethyl-3-(4-methyl-3-(((*S)-8′-methyl-1′,1′-dioxido-4,5-dihydro-2H-spiro[furan-3,4′-pyrido[2,3-b][1,4,5]oxathiazepin]-2′(3′H)-yl)methyl)phenyl)-3-(8-methyl-3-(trifluoromethyl)-[1,2,4]triazolo[4,3-a]pyridin-7-yl)propanoic Acid], in assay [1], the pKd is 5.91. In assay [2], the pEC50 was 6.57.
On the same counts, the results for `Cc1ccc([C@@H](CC(=O)O)c2ccc3c(nnn3CC3CC3)c2C)cc1CN1CC2(CC2)N(C)c2ncccc2S1(=O)=O` (single isomer, unassigned) [Example 79, (*R)-3-(1-(Cyclopropylmethyl)-4-methyl-1H-benzo[d][1,2,3]triazol-5-yl)-3-(4-methyl-3-((5′-methyl-1′,1′-dioxido-5′H-spiro[cyclopropane-1,4′-pyrido[2,3-f][1,2,5]thiadiazepin]-2′(3′H)-yl)methyl)phenyl)propanoic Acid] are 8.25 and 6.81.
The corresponding values for `Cc1ccc([C@H](c2ccn3c(C(F)(F)F)nnc3c2C)C(C)(C)C(=O)O)cc1CN1CC2(CCOCC2)Oc2nc(NCCN3CCOCC3)c(C)cc2S1(=O)=O` (single isomer, unassigned) [Example 365, (*R)-2,2-Dimethyl-3-(4-methyl-3-((8′-methyl-7′-((2-morpholinoethyl)amino)-1′,1′-dioxido-2,3,5,6-tetrahydrospiro[pyran-4,4′-pyrido[2,3-b][1,4,5]oxathiazepin]-2′(3′H)-yl)methyl)phenyl)-3-(8-methyl-3-(trifluoromethyl)-[1,2,4]triazolo[4,3-a]pyridine-7-yl)propanoic Acid] are greater than 9.00 and 7.62.
On to `Cc1ccc([C@H](CC(=O)O)c2ccc3c(nnn3C3CC3)c2C)cc1CN1C[C@@H]2CCCCN2c2ncccc2S1(=O)=O` (single isomer, unassigned) [Example 398, (*S)-3-(1-Cyclopropyl-4-methyl-1H-benzo[d][1,2,3]triazol-5-yl)-3-(3-(((*S)-5,5-dioxido-7,7a,8,9,10,11-hexahydro-6H-dipyrido[2,1-d:2′,3′-f][1,2,5]thiadiazepin-6-yl)methyl)-4-methylphenyl)propanoic Acid], for which the pKd in assay [1] was greater than 9.00. Moreover, in assay [2], the pEC50 is 8.85.
